Data taken from US20240182513A1, “SEPARATION OF METAL IONS FROM A SAMPLE USING GLYCOLIPIDS” (ARIZONA BOARD OF REGENTS ON BEHALF OF THE UNIVERSITY OF …, priority 2021, published 2024).

Columns and labels:
[1] = Example 2.1 rhamnolipid precipitation, filtration, centrifugation: lead; conditions: for Treatment 2: Rhamnolipid and Filtration Cf / Treatment 3: Rhamnolipid and Centrifugation Cc / Treatment 1: Rhamnolipid Only Cr: lead concentration after treatment; for Treatment 1: Rhamnolipid Only (Rr) efficiency of removal / Treatment 2: Rhamnolipid and Filtration (Rf) efficiency of removal / Treatment 3: Rhamnolipid and Centrifugation (Rc) efficiency of removal: lead
Description: (§1) Structural variants of synthetic glycolipids were used to show the effect of the number and length of the hydrophobic tail(s) on rhamnolipid as a chemical precipitant. […] Solutions (10 mM) were made using nanopure water (≥18 MΩ-cm) then adjusted to a pH of 6.9±0.05 with HNO3 and NaOH. These solutions were made in advance and stored in the cold room for up to one month. They were brought to room temperature before each experiment.
(§2) Three metals were tested for binding with rhamnolipid. Lead as […] (Fisher Scientific, Waltham, MA, 99% purity), was chosen to represent a metal with high rhamnolipid-metal conditional stability constant; lanthanum as La(NO3)3 6(H2O) (Sigma-Aldrich, St. Louis, MO, 99.99% purity) was chosen as a representative REE; and magnesium as Mg(NO3)2 6(H2O) (Sigma-Aldrich, St. Louis, MO, 99% purity) was chosen to represent a metal with a low rhamnolipid-metal conditional stability constant (Hogan et al., 2017). Metal solutions (5 mM) were made using nanopure water (≥18 MΩ-cm) in 20 ml glass scintillation vials. All solutions were used within 15 min to ensure minimal adsorption to the glass vial.
(§3) Three glycolipid-based treatments were evaluated to remove metal from solution: (1) the addition of glycolipid with no further treatment (gravitational precipitation), (2) the addition of a glycolipid followed by filtration or (3) the addition of a glycolipid followed by centrifugation. Each metal (Pb, La, and Mg) was evaluated separately with each of the glycolipid structures. For each experiment, a metal solution was mixed with a glycolipid solution in a 1.7 ml reaction tube at varying molar ratios of glycolipid to metal: 0:1 (glycolipid-free control), 2:1, 5:1, and 10:1. The reactions were mixed in the order of nanopure water (≥18 MΩ-cm), glycolipid solution (10 mM), then metal solution (5 mM). The metal and glycolipid solutions were continuously stirred as they were aliquoted into the reaction tubes. The experiment was performed in triplicate.
(§4) The reaction tubes were mixed overnight (16 to 24 h) and then three samples were collected from each tube to measure the effect of each of the three treatments: a glycolipid only treatment sample, a filtration treatment sample, and a centrifugation treatment sample. Briefly, for the glycolipid only treatment samples all tubes were vortexed for approximately 5 sec immediately before removing 0.1 ml into a dilution tube of 2% trace metal grade nitric acid (12 to 14 ml) to minimize the settling of particles. For the filtration samples each reaction tube was vortexed for 5 sec and then a 0.6 ml aliquot was collected with a 1 ml syringe. A GHP acrodisc disk filter (hydrophilic polypropylene membrane, 0.45 μm pore size, 25 mm disc diameter) from Pall Life Sciences (Port Washington, New York) was then placed onto the end of the syringe and the solution was pushed through the filter. The void space in the disk filter holds approximately 0.5 ml, therefore around 0.1 ml of filtrate was collected into a dilution tube. For the centrifugation sample, the remaining solution was centrifuged at 10,000 RCF for 15 min. Approximately 0.1 ml of the supernatant was aliquoted into a dilution tube. Following collection, all samples were taken for metal analysis using ICP-MS.

[2] = Example 2.1 rhamnolipid precipitation, filtration, centrifugation: magnesium; conditions: for Treatment 2: Rhamnolipid and Filtration Cf / Treatment 3: Rhamnolipid and Centrifugation Cc / Treatment 1: Rhamnolipid Only Cr: magnesium concentration after treatment; for Treatment 1: Rhamnolipid Only (Rr) efficiency of removal / Treatment 2: Rhamnolipid and Filtration (Rf) efficiency of removal / Treatment 3: Rhamnolipid and Centrifugation (Rc) efficiency of removal: magnesium
Description: as §1, §2, §3, §4

[3] = Example 2.1 rhamnolipid precipitation, filtration, centrifugation: lanthanum; conditions: for Treatment 2: Rhamnolipid and Filtration Cf / Treatment 3: Rhamnolipid and Centrifugation Cc / Treatment 1: Rhamnolipid Only Cr: lanthanum concentration after treatment; for Treatment 1: Rhamnolipid Only (Rr) efficiency of removal / Treatment 2: Rhamnolipid and Filtration (Rf) efficiency of removal / Treatment 3: Rhamnolipid and Centrifugation (Rc) efficiency of removal: lanthanum
Description: as §1, §2, §3, §4

CCCCCCCCCCCCCCCC(CC(=O)O)OC1O[C@@H](C)[C@H](O)[C@@H](O)[C@H]1O (stereo partly shown) [Rha C18]
Treatment 2: Rhamnolipid and Filtration Cf ([1]; molar ratio 2 to 1): 0.027 ± 0.001 mmol/L
Treatment 3: Rhamnolipid and Centrifugation Cc ([1]; molar ratio 2 to 1): 0.132 ± 0.001 mmol/L
Treatment 1: Rhamnolipid Only Cr ([1]; molar ratio 5 to 1): 0.044 ± 0.008 mmol/L
Treatment 2: Rhamnolipid and Filtration Cf ([1]; molar ratio 5 to 1): 0.000 ± 0.002 mmol/L
Treatment 3: Rhamnolipid and Centrifugation Cc ([1]; molar ratio 5 to 1): 0.005 ± 0.002 mmol/L
Treatment 1: Rhamnolipid Only Cr ([1]; molar ratio 10 to 1): 0.255 ± 0.015 mmol/L
Treatment 2: Rhamnolipid and Filtration Cf ([1]; molar ratio 10 to 1): 0.000 ± 0.001 mmol/L
Treatment 3: Rhamnolipid and Centrifugation Cc ([1]; molar ratio 10 to 1): 0.014 ± 0.001 mmol/L
Treatment 1: Rhamnolipid Only Cr ([1]; molar ratio rhamnolipid:lead 2 to 1): 0.123 ± 0.002 mmol/L
Treatment 1: Rhamnolipid Only (Rr) efficiency of removal ([1]; molar ratio 2 to 1): (54.8%)
Treatment 2: Rhamnolipid and Filtration (Rf) efficiency of removal ([1]; molar ratio 2 to 1): (90.1%)
Treatment 3: Rhamnolipid and Centrifugation (Rc) efficiency of removal ([1]; molar ratio 2 to 1): (51.6%)
Treatment 1: Rhamnolipid Only (Rr) efficiency of removal ([1]; molar ratio 5 to 1): (83.9%)
Treatment 2: Rhamnolipid and Filtration (Rf) efficiency of removal ([1]; molar ratio 5 to 1): (99.9%)
Treatment 3: Rhamnolipid and Centrifugation (Rc) efficiency of removal ([1]; molar ratio 5 to 1): (98.1%)
Treatment 1: Rhamnolipid Only (Rr) efficiency of removal ([1]; molar ratio 10 to 1): (6.2%)
Treatment 2: Rhamnolipid and Filtration (Rf) efficiency of removal ([1]; molar ratio 10 to 1): (99.9%)
Treatment 3: Rhamnolipid and Centrifugation (Rc) efficiency of removal ([1]; molar ratio 10 to 1): (94.7%)
Treatment 2: Rhamnolipid and Filtration Cf ([2]; molar ratio 2 to 1): 0.169 ± 0.015 mmol/L
Treatment 3: Rhamnolipid and Centrifugation Cc ([2]; molar ratio 2 to 1): 0.216 ± 0.002 mmol/L
Treatment 1: Rhamnolipid Only Cr ([2]; molar ratio 5 to 1): 0.215 ± 0.002 mmol/L
Treatment 2: Rhamnolipid and Filtration Cf ([2]; molar ratio 5 to 1): 0.056 ± 0.012 mmol/L
Treatment 3: Rhamnolipid and Centrifugation Cc ([2]; molar ratio 5 to 1): 0.141 ± 0.001 mmol/L
Treatment 1: Rhamnolipid Only Cr ([2]; molar ratio 10 to 1): 0.304 ± 0.001 mmol/L
Treatment 2: Rhamnolipid and Filtration Cf ([2]; molar ratio 10 to 1): 0.017 ± 0.002 mmol/L
Treatment 3: Rhamnolipid and Centrifugation Cc ([2]; molar ratio 10 to 1): 0.107 ± 0.004 mmol/L
Treatment 1: Rhamnolipid Only Cr ([2]; molar ratio rhamnolipid:magnesium 2 to 1): 0.265 ± 0.002 mmol/L
Treatment 1: Rhamnolipid Only (Rr) efficiency of removal ([2]; molar ratio 2 to 1): (12.1%)
Treatment 2: Rhamnolipid and Filtration (Rf) efficiency of removal ([2]; molar ratio 2 to 1): (37.0%)
Treatment 3: Rhamnolipid and Centrifugation (Rc) efficiency of removal ([2]; molar ratio 2 to 1): (20.5%)
Treatment 1: Rhamnolipid Only (Rr) efficiency of removal ([2]; molar ratio 5 to 1): (19.5%)
Treatment 2: Rhamnolipid and Filtration (Rf) efficiency of removal ([2]; molar ratio 5 to 1): (79.0%)
Treatment 3: Rhamnolipid and Centrifugation (Rc) efficiency of removal ([2]; molar ratio 5 to 1): (47.4%)
Treatment 2: Rhamnolipid and Filtration (Rf) efficiency of removal ([2]; molar ratio 10 to 1): (93.7%)
Treatment 3: Rhamnolipid and Centrifugation (Rc) efficiency of removal ([2]; molar ratio 10 to 1): (60.1%)
Treatment 2: Rhamnolipid and Filtration Cf ([3]; molar ratio 2 to 1): 0.116 ± 0.029 mmol/L
Treatment 3: Rhamnolipid and Centrifugation Cc ([3]; molar ratio 2 to 1): 0.228 ± 0.013 mmol/L
Treatment 1: Rhamnolipid Only Cr ([3]; molar ratio 5 to 1): 0.121 ± 0.009 mmol/L
Treatment 2: Rhamnolipid and Filtration Cf ([3]; molar ratio 5 to 1): 0.001 ± 0.002 mmol/L
Treatment 3: Rhamnolipid and Centrifugation Cc ([3]; molar ratio 5 to 1): 0.088 ± 0.003 mmol/L
Treatment 1: Rhamnolipid Only Cr ([3]; molar ratio 10 to 1): 0.331 ± 0.024 mmol/L
Treatment 2: Rhamnolipid and Filtration Cf ([3]; molar ratio 10 to 1): 0.004 ± 0.001 mmol/L
Treatment 3: Rhamnolipid and Centrifugation Cc ([3]; molar ratio 10 to 1): 0.051 ± 0.010 mmol/L
Treatment 1: Rhamnolipid Only Cr ([3]; molar ratio rhamnolipid:lanthanum 2 to 1): 0.249 ± 0.009 mmol/L
Treatment 1: Rhamnolipid Only (Rr) efficiency of removal ([3]; molar ratio 2 to 1): (16.5%)
Treatment 2: Rhamnolipid and Filtration (Rf) efficiency of removal ([3]; molar ratio 2 to 1): (61.1%)
Treatment 3: Rhamnolipid and Centrifugation (Rc) efficiency of removal ([3]; molar ratio 2 to 1): (23.4%)
Treatment 1: Rhamnolipid Only (Rr) efficiency of removal ([3]; molar ratio 5 to 1): (59.4%)
Treatment 2: Rhamnolipid and Filtration (Rf) efficiency of removal ([3]; molar ratio 5 to 1): (99.5%)
Treatment 3: Rhamnolipid and Centrifugation (Rc) efficiency of removal ([3]; molar ratio 5 to 1): (70.6%)
Treatment 2: Rhamnolipid and Filtration (Rf) efficiency of removal ([3]; molar ratio 10 to 1): (98.8%)
Treatment 3: Rhamnolipid and Centrifugation (Rc) efficiency of removal ([3]; molar ratio 10 to 1): (82.8%)
